Results reported in US9012625B2, “Method for the synthesis of a trisaccharide” (Glycom A/S, priority 2009, dated 2015).

Assay: solubility in hot methanol
Assay type: physicochemical
Details: 3 volumes

For CC1O[C@@H](OC2C(O)[C@@H](O)C(CO)O[C@H]2O[C@@H]2C(CO)OC(O)C(O)C2O)C(OCc2ccccc2)C(OCc2ccccc2)[C@@H]1OCc1ccccc1 (stereo partly drawn) [anhydrous derivative, O-(2,3,4-tri-O-benzyl-α-L-fucopyranosyl)-(1→2)-O-β-D-galactopyranosyl-(1→4)-D-glucose], which “solubility in hot methanol” value is on record?
The value was “excellent solubility”.
